According to patent publication US9458153B2, “Dihydroquinolizinones for the treatment and prophylaxis of hepatitis B virus infection” (Hoffmann-La Roche Inc., priority 2014, dated 2016):
pIC50: −log10 of the molar value. Where a name gives a salt, the structure may show the parent alone.

What follows are molecules tested on HBsAg (assay: HBsAg assay (chemiluminescence immunoassay of secreted HBsAg in HepG2.2.15 culture supernatant)). Conditions: HBsAg secretion reduced by 50% vs no drug control; HepG2.2.15 cells; CLIA kit.
Type: cell-based, HBV
Method in brief: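 IC50 came from dose-response curves of HBsAg in culture supernatant, measured semi-quantitatively by chemiluminescent immunoassay. The HBV-producing HepG2.2.15 line was dosed in duplicate with a three-fold compound dilution series, with DMSO at 1% final and DMSO alone as the no-drug control.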

Point of comparison: COc1cc2c(cc1OCCCCCCO)CC(C(C)(C)C)n1cc(C(=O)O)c(=O)cc1-2 (stereo not shown) [Example 155, 6-tert-butyl-9-(6-hydroxyhexoxy)-10-methoxy-2-oxo-6,7-dihydrobenzo[a]quinolizine-3-carboxylic acid], pIC50 8.70. Against it:
- COc1cc2c(cc1OCC(C)(C)CO)CC(C(C)(C)C)n1cc(C(=O)O)c(=O)cc1-2 (stereo not shown) [Example 149, 6-tert-butyl-9-(3-hydroxy-2,2-dimethyl-propoxy)-10-methoxy-2-oxo-6,7-dihydrobenzo[a]quinolizine-3-carboxylic acid] — the same, 8.70
- COc1cc2c(cc1OCCCCCO)CC(C(C)(C)C)n1cc(C(=O)O)c(=O)cc1-2 (stereo not shown) [Example 152, 6-tert-butyl-9-(5-hydroxypentoxy)-10-methoxy-2-oxo-6,7-dihydrobenzo[a]quinolizine-3-carboxylic acid] — the same, 8.70
- COc1cc2c(cc1OCCCCCCN)CC(C(C)(C)C)n1cc(C(=O)O)c(=O)cc1-2 (stereo not shown) [Example 160, 9-(6-aminohexoxy)-6-tert-butyl-10-methoxy-2-oxo-6,7-dihydrobenzo[a]quinolizine-3-carboxylic acid] — 0.96 log units lower, 7.74
- COc1cc2c(cc1OCCCCCCNC(=O)OC(C)(C)C)CC(C(C)(C)C)n1cc(C(=O)O)c(=O)cc1-2 (stereo not shown) [Example 161, 9-[6-(tert-butoxycarbonylamino)hexoxy]-6-tert-butyl-10-methoxy-2-oxo-6,7-dihydrobenzo[a]quinolizine-3-carboxylic acid] — 0.65 log units lower, 8.05
- COc1cc2c(cc1OCCCCCCCCN)CC(C(C)(C)C)n1cc(C(=O)O)c(=O)cc1-2 (stereo not shown) [Example 166, 9-(8-aminooctoxy)-6-tert-butyl-10-methoxy-2-oxo-6,7-dihydrobenzo[a]quinolizine-3-carboxylic acid] — 0.48 log units lower, 8.22
- COc1cc2c(cc1OCCCCCCCCNC(=O)OC(C)(C)C)CC(C(C)(C)C)n1cc(C(=O)O)c(=O)cc1-2 (stereo not shown) [Example 167, 9-[8-(tert-butoxycarbonylamino)octoxy]-6-tert-butyl-10-methoxy-2-oxo-6,7-dihydrobenzo[a]quinolizine-3-carboxylic acid] — 0.74 log units lower, 7.96
- COc1cc2c(cc1OCCCSC)CC(C(C)(C)C)n1cc(C(=O)O)c(=O)cc1-2 (stereo not shown) [Example 183, 6-tert-butyl-10-methoxy-9-(3-methylsulfanylpropoxy)-2-oxo-6,7-dihydrobenzo[a]quinolizine-3-carboxylic acid] — the same, 8.70
- COc1cc2c(cc1OCCCS(C)(=O)=O)CC(C(C)(C)C)n1cc(C(=O)O)c(=O)cc1-2 (stereo not shown) [Example 186, 6-tert-butyl-10-methoxy-9-(3-methylsulfonylpropoxy)-2-oxo-6,7-dihydrobenzo[a]quinolizine-3-carboxylic acid] — 1.00 log units lower, 7.70
- COCCCOc1cc2c(cc1OC)-c1cc(=O)c(C(=O)O)cn1C(CC(F)(F)F)C2 (stereo not shown) [Example 199, 10-methoxy-9-(3-methoxypropoxy)-2-oxo-6-(2,2,2-trifluoroethyl)-6,7-dihydrobenzo[a]quinolizine-3-carboxylic acid] — 1.22 log units lower, 7.48
- COCCCOc1cc2c(cc1Cl)-c1cc(=O)c(C(=O)O)cn1C(C(C)(C)C)C2 (stereo not shown) [Example 202, 6-tert-butyl-10-chloro-9-(3-methoxypropoxy)-2-oxo-6,7-dihydrobenzo[a]quinolizine-3-carboxylic acid] — the same, 8.70
- COCCCOc1cc2c(cc1Cl)-c1cc(=O)c(C(=O)O)cn1C(C1(C)CC1)C2 (stereo not shown) [Example 205, 10-chloro-9-(3-methoxypropoxy)-6-(1-methylcyclopropyl)-2-oxo-6,7-dihydrobenzo[a]quinolizine-3-carboxylic acid] — 0.30 log units higher, 9.00
- COCCCOc1cc2c(c(F)c1F)-c1cc(=O)c(C(=O)O)cn1C(C(C)C)C2 (stereo not shown) [Example 213, 10,11-difluoro-6-isopropyl-9-(3-methoxypropoxy)-2-oxo-6,7-dihydrobenzo[a]quinolizine-3-carboxylic acid] — 1.08 log units lower, 7.62

Same assay, conditions: HBsAg secretion reduced by 50% vs no drug control; HepG2.2.15 cells; CLIA kit; hydrochloride

Point of comparison: COc1cc2c(cc1OCCCN1CCOCC1)CC(C(C)(C)C)n1cc(C(=O)O)c(=O)cc1-2 (stereo not shown) [Example 192, 6-tert-butyl-10-methoxy-9-(3-morpholinopropoxy)-2-oxo-6,7-dihydrobenzo[a]quinolizine-3-carboxylic acid hydrochloride], pIC50 8.00. Against it:
- COc1cc2c(cc1OCCN1CCOCC1)CC(C(C)(C)C)n1cc(C(=O)O)c(=O)cc1-2 (stereo not shown) [Example 189, 6-tert-butyl-10-methoxy-9-(2-morpholinoethoxy)-2-oxo-6,7-dihydrobenzo[a]quinolizine-3-carboxylic acid hydrochloride] — 0.26 log units lower, 7.74

Same assay, conditions: Hepatitis B virus, HepG2.2.15, HBsAg secretion reduced by 50% vs no drug control; HepG2.2.15 cells; CLIA kit

Point of comparison: CCNCCOCCCOc1cc2c(cc1OC)-c1cc(=O)c(C(=O)O)cn1C(C(C)(C)C)C2 (stereo not shown) [Example 179, 6-tert-butyl-9-[3-[2-(ethylamino)ethoxy]propoxy]-10-methoxy-2-oxo-6,7-dihydrobenzo[a]quinolizine-3-carboxylic acid], pIC50 7.42. Against it:
- COc1cc2c(cc1OCCCO)CC(C(C)C)n1cc(C(=O)O)c(=O)cc1-2 (stereo not shown) [Example 147, 9-(3-hydroxypropoxy)-6-isopropyl-10-methoxy-2-oxo-6,7-dihydrobenzo[a]quinolizine-3-carboxylic acid] — within 0.2 log units, 7.52
- COCCCCOc1cc2c(cc1OC)-c1cc(=O)c(C(=O)O)cn1C(C(C)C)C2 (stereo not shown) [Example 148, 6-isopropyl-10-methoxy-9-(4-methoxybutoxy)-2-oxo-6,7-dihydrobenzo[a]quinolizine-3-carboxylic acid] — 0.88 log units higher, 8.30
- COc1cc2c(cc1OCCCCO)CC(C(C)(C)C)n1cc(C(=O)O)c(=O)cc1-2 (stereo not shown) [Example 158, 6-tert-butyl-9-(4-hydroxybutoxy)-10-methoxy-2-oxo-6,7-dihydrobenzo[a]quinolizine-3-carboxylic acid] — 1.10 log units higher, 8.52
- COc1cc2c(cc1OCC#CCO)CC(C(C)(C)C)n1cc(C(=O)O)c(=O)cc1-2 (stereo not shown) [Example 159, 6-tert-butyl-9-(4-hydroxybut-2-ynoxy)-10-methoxy-2-oxo-6,7-dihydrobenzo[a]quinolizine-3-carboxylic acid] — 0.24 log units lower, 7.18
- COc1cc2c(cc1OCCCCCNC(=O)OC(C)(C)C)CC(C(C)(C)C)n1cc(C(=O)O)c(=O)cc1-2 (stereo not shown) [Example 172, 9-[5-(tert-butoxycarbonylamino)pentoxy]-6-tert-butyl-10-methoxy-2-oxo-6,7-dihydrobenzo[a]quinolizine-3-carboxylic acid] — 1.28 log units higher, 8.70
- COc1cc2c(cc1OCCCCCNC(C)=O)CC(C(C)(C)C)n1cc(C(=O)O)c(=O)cc1-2 (stereo not shown) [Example 175, 9-(5-acetamidopentoxy)-6-tert-butyl-10-methoxy-2-oxo-6,7-dihydrobenzo[a]quinolizine-3-carboxylic acid] — within 0.2 log units, 7.48
- COc1cc2c(cc1OCCCCCNS(C)(=O)=O)CC(C(C)(C)C)n1cc(C(=O)O)c(=O)cc1-2 (stereo not shown) [Example 176, 6-tert-butyl-9-[5-(methanesulfonamido)pentoxy]-10-methoxy-2-oxo-6,7-dihydrobenzo[a]quinolizine-3-carboxylic acid] — 1.10 log units higher, 8.52
- COc1cc2c(cc1OCCN)CC(C(C)(C)C)n1cc(C(=O)O)c(=O)cc1-2 (stereo not shown) [Example 177, 9-(2-aminoethoxy)-6-tert-butyl-10-methoxy-2-oxo-6,7-dihydrobenzo[a]quinolizine-3-carboxylic acid] — 1.56 log units lower, 5.86
- COc1cc2c(cc1OCCCOCCN)CC(C(C)(C)C)n1cc(C(=O)O)c(=O)cc1-2 (stereo not shown) [Example 178, 9-[3-(2-aminoethoxy)propoxy]-6-tert-butyl-10-methoxy-2-oxo-6,7-dihydrobenzo[a]quinolizine-3-carboxylic acid] — 0.22 log units lower, 7.20
- COc1cc2c(cc1OCCC(F)F)CC(C(C)(C)C)n1cc(C(=O)O)c(=O)cc1-2 (stereo not shown) [Example 180, 6-tert-butyl-9-(3,3-difluoropropoxy)-10-methoxy-2-oxo-6,7-dihydrobenzo[a]quinolizine-3-carboxylic acid] — 0.98 log units higher, 8.40
- CCC(F)(F)Oc1cc2c(cc1OC)-c1cc(=O)c(C(=O)O)cn1C(C(C)(C)C)C2 (stereo not shown) [Example 181, 6-tert-butyl-9-(1,1-difluoropropoxy)-10-methoxy-2-oxo-6,7-dihydrobenzo[a]quinolizine-3-carboxylic acid] — 0.50 log units higher, 7.92
- C=CC(F)(F)Oc1cc2c(cc1OC)-c1cc(=O)c(C(=O)O)cn1C(C(C)(C)C)C2 (stereo not shown) [Example 182, 6-tert-butyl-9-(1,1-difluoroallyloxy)-10-methoxy-2-oxo-6,7-dihydrobenzo[a]quinolizine-3-carboxylic acid] — 0.38 log units higher, 7.80
- COc1cc2c(cc1OCCCN1CCCC1=O)CC(C(C)(C)C)n1cc(C(=O)O)c(=O)cc1-2 (stereo not shown) [Example 195, 6-tert-butyl-10-methoxy-2-oxo-9-[3-(2-oxopyrrolidin-1-yl)propoxy]-6,7-dihydrobenzo[a]quinolizine-3-carboxylic acid] — within 0.2 log units, 7.24
- COc1cc2c(cc1OCCCN1CCCC1)CC(C(C)(C)C)n1cc(C(=O)O)c(=O)cc1-2 (stereo not shown) [Example 196, 6-tert-butyl-10-methoxy-2-oxo-9-(3-pyrrolidin-1-ylpropoxy)-6,7-dihydrobenzo[a]quinolizine-3-carboxylic acid] — 0.50 log units lower, 6.92
- COCCCOc1cc2c(cc1OC)-c1cc(=O)c(C(=O)O)cn1C(C1CCC1)C2 (stereo not shown) [Example 197, 6-cyclobutyl-10-methoxy-9-(3-methoxypropoxy)-2-oxo-6,7-dihydrobenzo[a]quinolizine-3-carboxylic acid] — 1.10 log units higher, 8.52
- COc1cc2c(cc1OC)-c1cc(=O)c(C(=O)O)cn1C(CC(F)(F)F)C2 (stereo not shown) [Example 198, 9,10-dimethoxy-2-oxo-6-(2,2,2-trifluoroethyl)-6,7-dihydrobenzo[a]quinolizine-3-carboxylic acid] — 0.78 log units lower, 6.64
- COc1cc2c(cc1OC)-c1cc(=O)c(C(=O)O)cn1C(Cc1ccccc1)C2 (stereo not shown) [Example 211, 6-benzyl-9,10-dimethoxy-2-oxo-6,7-dihydrobenzo[a]quinolizine-3-carboxylic acid] — 2.34 log units lower, 5.08
- COc1cc2c(cc1OCCCn1cccn1)CC(C(C)(C)C)n1cc(C(=O)O)c(=O)cc1-2 (stereo not shown) [Example 216, 6-tert-butyl-10-methoxy-2-oxo-9-(3-pyrazol-1-ylpropoxy)-6,7-dihydrobenzo[a]quinolizine-3-carboxylic acid] — 0.80 log units higher, 8.22
